According to article PMC5581131, “The novel sphingosine-1-phosphate receptors antagonist AD2900 affects lymphocyte activation and inhibits T-cell entry into the lymph nodes” (Oncotarget, 2017):

Tested on: human PBMCs
Experiment: 5-day MLR with Et-18-OCH3, BAPTA-AM or 8-bromo-cAMP preincubation, analogues present throughout
Assay type: cell-based
Conditions: 2 μM; 1 hour preincubation with the inhibitors
Protocol: To determine whether the effect of inhibition of AD2900 on PBMC proliferation is dependent on the same signal transduction pathways, we next examined the capacities of the intracellular Ca^2+ chelator-BAPTA-AM, phosphatidylinositol-specific PLC inhibitor-Et-18-OCH3, and cell-permeate exogenous cAMP-8-bromo-cAMP to alter the suppressive effect of AD2900 and FTY720 on PBMC proliferation. S1P served as a positive control (Figures 2A, 2B, and 2C, respectively). PBMCs were pre-incubated for 1 hour with the inhibitors before the addition of 2 μM AD2900, FTY720, or S1P in the MLR experiment. The inhibitors and the analogues were present in the culture throughout the allogeneic activation. AD2900 suppression of PBMC proliferation was reduced from 59% ± 3% to 32% ± 7% by the exogenous cAMP. BAPTA-AM also partially reversed AD2900 suppression of PBMC proliferation from 59% ± 3% to 32% ± 3%, yet Et-18-OCH3 had no effect (Figure 2A).
Figure 2 Effect of AD2900 on proliferation is dependent on cAMP reduction and calcium signal transduction The effect of Edelfosine (Et-18-OCH3) (Et), BAPTA-AM (BAPTA), or 8-bromo-cAMP (8-b-CAMP) on the inhibition of PBMC proliferation was tested in a 5-day MLR experiment. The cells were incubated with 1 μM Edelfosine, 0.2 μM BAPTA-AM, or 5 μM 8-bromo-cAMP for 1 hour before the addition of sphingolipid analogues, 2 μM AD2900 (AD) (A), FTY720 (FTY) (B), or S1P (C). Significances are compared to AD2900/FTY/S1P without preincubation, respectively. Graphs summarize the results of at least four independent experiments. Results of Student’s t-test: *(P < 0.05, two-tailed test), ** (P < 0.01, two-tailed test).
Human PBLs were collected from human whole blood collected from healthy donors. Subsequently, the cells were centrifuged on a Ficoll-Paque gradient (Fresenius Kabi Norge AS, Oslo, Norway) and were isolated from the interphase layer. For the human MLR experiment, PBMCs from one healthy donor were pretreated for 1 day with AD2900, AD2730, AD2750, YZ297, YZ158, FTY720, or SEW2871. After 24 h, cells were washed and plated at a concentration of 5 × 10^4 cells/well in round bottom 96-well plates containing RPMI-1640 medium Supplemented with 10% human AB serum, 1% penicillin/streptomycin, and 1% l-glutamine (Beit Haemek, Israel). PBMCs from a second donor were irradiated at 3000 γ dosage and added to the plate in a 1:1 ratio with the first donor cells. The cells were cultured for 5 days. For the thymidine incorporation assay, after 4 days of co-culture, cells were pulsed with ^3H-thymidine at 1 μCi (0.037MBq) per well (PerkinElmer, MA, USA) for 16 additional hours and then harvested onto glass-fiber filters. ^3H-thymidine incorporation was measured using Top Count. NXT (PerkinElmer, UK). In other experiments, the supernatant was harvested after 5 days of co-culture for IFN-γ and TNF-α cytokine ELISA measurements (eBioscience, CA, USA). The cells were then collected for assessing apoptosis by FACS in MACSQuant analyzer (Miltenyi Biotech, Germany). In another set of experiments, the PBMCs of two donors were mixed. Sphingolipid analogues were then added to the culture and sustained through the 5 days of the MLR experiment.

CCCCCCCCCCCCC/C=C/[C@@H](O)[C@@H](N)COP(=O)(O)O [S1P, Sphingosine-1-phosphate]
effect of Et-18-OCH3, BAPTA-AM and 8-bromo-cAMP on suppression of PBMC proliferation: reversed by all three inhibitors
